The values below come from paper PMC11530593, “Structural mechanism of human HCN1 hyperpolarization-activated channel inhibition by ivabradine” (The Journal of Biological Chemistry, 2024).

Series [1] deals with T1, HCN1 mutant Y289A (Homo sapiens, UniProt O60741, Y289A).
T1 construct: Full-length WT or mutant human HCN1 were cloned into the pcDNA3.1 vector; expressed in transfected cells; host or cells: HeLa cells, pcDNA3.1 vector, transient lipofection
T1 sequence (O60741 1-890 Y289A): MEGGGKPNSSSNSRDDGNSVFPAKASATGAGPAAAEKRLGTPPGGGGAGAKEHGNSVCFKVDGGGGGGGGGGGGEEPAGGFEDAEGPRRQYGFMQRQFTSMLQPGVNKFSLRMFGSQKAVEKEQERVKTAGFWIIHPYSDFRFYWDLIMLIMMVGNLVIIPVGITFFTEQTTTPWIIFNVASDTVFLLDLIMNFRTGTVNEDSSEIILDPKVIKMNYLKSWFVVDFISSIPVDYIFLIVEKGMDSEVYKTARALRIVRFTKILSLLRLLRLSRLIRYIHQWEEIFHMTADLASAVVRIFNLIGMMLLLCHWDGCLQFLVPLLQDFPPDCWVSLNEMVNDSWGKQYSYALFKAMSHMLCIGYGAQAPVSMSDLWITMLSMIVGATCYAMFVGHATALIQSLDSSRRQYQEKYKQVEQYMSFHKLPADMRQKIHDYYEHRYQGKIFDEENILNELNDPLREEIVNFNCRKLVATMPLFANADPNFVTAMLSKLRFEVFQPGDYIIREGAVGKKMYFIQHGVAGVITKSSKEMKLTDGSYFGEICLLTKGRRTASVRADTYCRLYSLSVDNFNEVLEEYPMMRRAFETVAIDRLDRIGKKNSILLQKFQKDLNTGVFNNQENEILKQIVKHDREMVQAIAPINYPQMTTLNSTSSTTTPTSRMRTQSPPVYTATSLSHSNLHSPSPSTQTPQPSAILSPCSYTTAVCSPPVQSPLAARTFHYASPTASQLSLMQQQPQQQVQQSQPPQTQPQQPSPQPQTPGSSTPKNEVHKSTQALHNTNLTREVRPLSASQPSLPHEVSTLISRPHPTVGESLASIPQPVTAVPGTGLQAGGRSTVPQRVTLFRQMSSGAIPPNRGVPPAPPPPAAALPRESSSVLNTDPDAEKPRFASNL
The series can be described thus: Whole-cell patch-clamp, Ih inhibition, HCN1 mutant. The series is classed as cell-based. Particulars: electrophysiological recordings, read-out: IC50 (Fig. 2F). Here is the method:
To elucidate the contribution of these residues to the inhibitory effect of ivabradine, we introduced mutations in ivabradine-interacting residues, converting them into alanines (Fig. 2F).
(§1) Full-length WT or mutant human HCN1 were cloned into the pcDNA3.1 vector for electrophysiological experiments. HeLa cells (from Thermo Fisher Scientific) cultured in Dulbecco's modified Eagle's medium (from Solarbio Life Science) + 10% fetal bovine serum (from ExCell Bio) at 37 °C were transiently transfected using lipofection, and whole-cell patch-clamp recordings were obtained using the Axon 200B amplifier (Molecular Devices) and clampex software (https://www.moleculardevices.com/products/axon-patch-clamp-system/acquisition-and-analysis-software/pclamp-software-suite), 36 to 48 h posttransfection. The extracellular solution contained 110 mM NaCl, 0.5 mM MgCl2, 1.8 mM CaCl2, 5 mM Hepes, 30 mM KCl, and pH was adjusted to 7.4 with NaOH, while the pipette solution contained 130 mM KCl, 10 mM NaCl, 0.5 mM MgCl2, 1 mM EGTA, 5 mM Hepes, and pH was adjusted to 7.4 with KOH. The recordings were performed at room temperature, voltage-clamp mode, and filtered at 1 kHz. The sampling frequency was 10 kHz, and the series resistance was limited to 5 MΩ. To elicit channel currents, step pulses of 3 s duration ranging from −180 mV to −30 mV were applied, followed by a step to −180 mV lasting 1.25 s. The tail currents evoked by the second step were used to determine the voltage-dependent activation curves and calculate the midpoint of activation potential (V1/2). The half maximal inhibitory concentration (IC50) of drugs was determined by recording currents at a pulse of −140 mV and analyzing current amplitudes at varying drug concentrations. The IC50 value was calculated using the Hill equation.
(The patch-clamp technique gives a direct electrical read-out from membranes.)

Series [2] concerns absence seizures. Also noted: method as in PMID 34018186. The following applies: coadministration with P-glycoprotein inhibitor elacridar; cited from earlier work.
On the set-up of series [3]: method as in PMID 16936474. Particulars: cited from earlier work.
For series [4], the target named is T2, WT hHCN1 (Homo sapiens, UniProt O60741).
T2 construct: Full-length WT or mutant human HCN1 were cloned into the pcDNA3.1 vector; expressed in transfected cells; host or cells: HeLa cells, pcDNA3.1 vector, transient lipofection
T2 sequence (O60741 1-890): T1 sequence (O60741 1-890 Y289A) with A289Y
The series can be described thus: Whole-cell patch-clamp, Ih inhibition in transfected HeLa cells. The series is classed as cell-based. The protocol:
The electrophysiological characteristics of WT hHCN1 were recorded using whole-cell patch-clamp. […] Activation of the HCN1 channel occurred in response to membrane hyperpolarization.
as §1

Substitutions are numbered along the chain they refer to.

For `COc1cc2c(cc1OC)CC(=O)N(CCCN(C)C[C@H]1Cc3cc(OC)c(OC)cc31)CC2` [ivabradine], the IC50 in series [1] turned out to be 11.8 µM; in series [4] (membrane potential -140 mV, read-out: half-maximal inhibitory concentration (IC50) of Ih inhibition), 2.94 ± 0.61 µM. The “effect on absence seizures” value in series [2] was “significantly and persistently reducing absence seizures”. For the same compound, the “ability to penetrate the blood-brain barrier” value in series [3] is “poor”. For the same compound, the “effect on Ih current” value in series [4] (20 μM) is on record as “significantly reduced”.
